Patent publication US12653860B2, “Compositions and methods for editing beta-globin for treatment of hemaglobinopathies” (Vertex Pharmaceuticals Incorporated, priority 2019, dated 2026)

Experiments:
[1] = test system: CFTR gene locus in HEK293 T cells; assay: TIDE analysis of DSB repair at CFTR gene locus; format: cell-based
Method: The effect of Nu7441 treatment on HDR was also evaluated at the CFTR gene locus in HEK293 T cells. To do so cells were electroporated with RNP comprising Cas9 and a gRNA targeting the CFTR gene locus (SEQ ID NO: 18; sgRNA target sequence identified by SEQ ID NO: 19). 2×10^5 cells were edited with 1 μM Cas9 and 1.5 μM gRNA. The cells were transfected with a ssODN donor (SEQ ID NO: 42). Cells were edited with 100 μM ssODN. The ssODN contains homology arms spanning both sides of the DSB induced by the Cas9-guide and is designed to include 3 additional base pairs (GCA) into the CFTR gene to aid detection of HDR. Cells were also treated with 5 μM Nu7441. Gene correction was assessed by TIDE analysis. TIDE analysis uses a pair of PCR reactions and standard capillary sequencing runs to identify mutations induced at the site of a DSB (see e.g., Brinkman (2014) Nucleic Acids Res 42:e168). The type of mutation induced at the DSB was indicative of the pathway used to repair the DSB. Formation of an indel comprising either an insertion or a deletion of bases was considered due to NHEJ repair; a deletion of 2-3 base pairs was considered due to MMEJ repair; while an insertion of 3 base pairs was considered due to HDR repair. Shown in FIGS. 4A-4B are mutations introduced at the DSB for cells treated with Nu7441 (FIG. 4B) compared to a DMSO negative control (FIG. 4A). […] This reduction in NHEJ repair in the presence of Nu7441 was evaluated with an additional ssODN donor (SEQ ID NO: 41).

[2] = test system: HBB gene locus in CD34-expressing LT-HSPCs; assay: INDEL frequency and species at R02 cut site with DNA-PK inhibitors, NGS; format: cell-based, human; conditions: 1 μg i53 mRNA; R02 RNP+AAV.307
Method: Editing was performed as described above. However, the cells were electroporated with AAV.307 administered 1 hour prior to electroporation at a dose of 10,000 MOI. The cells were electroporated with compound 296 at a concentration ranging from 0.005 μM to 10 μM, with compound 984 at a concentration ranging from 0.005 μM to […], or with 1 μg i53 mRNA. Negative control cells were electroporated with RNP+AAV only or RNP only.
Edited cells were evaluated for viability as described above, and for incorporation of gene-edits at 2 days post-electroporation. […] The frequency of INDELs induced at the R02 cut site was also evaluated by NGS analysis.
The INDELs species identified for cells edited in Experiment 2 were further evaluated to determine frequency of repair by NHEJ or MMEJ repair pathways. An INDEL of 1 nt was considered due to NHEJ repair; a deletion of −9 nt was considered due to MMEJ repair based on the microhomology present on either side of the R02 cut site. Based on percentage of total reads corresponding to these INDEL species, the ratio of gene edits due to NHEJ and MMEJ repair was evaluated.

[3] = test system: CD34-expressing LT-HSPCs from a human donor with sickle cell disease; assay: Hemoglobin expression (HbS, HbA) by HPLC in edited differentiated patient LT-HSPCs; format: cell-based; conditions: FIG. 32B
Method: Hemoglobin expressed by edited cells that were differentiated to erythrocytes was assessed. Hemoglobin A (HbA) is composed of 2 alpha-globin and 2 beta-globin units and is the dominant hemoglobin in adult humans. In human carriers of the HBB E6V mutation, a high proportion of total hemoglobin is hemoglobin S (HbS), which is composed of 2 alpha-globin units and 2 beta-globin units with E6V.
Briefly, on day 18 post-editing, 1×10^6 cells were harvested, centrifuged, and washed with PBS. The cells were prepared for HPLC analysis. Hemoglobin variants were quantified in cell samples using reverse-phase HPLC chromatography and gradient elution. […] Thus, high levels of HDR achieved with i53 contribute to normalization of hemoglobin expression products.

[4] = test system: PBMCs from a human donor with sickle cell disease; assay: Hemoglobin expression by HPLC in edited patient-derived PBMCs; format: cell-based; conditions: compared to mock EP control cells, FIG. 34
Method: (§1) It was further evaluated if editing of patient-derived PBMCs in the presence of i53 would yield high levels of correction of the HBB gene. […] The PBMCs were expanded in StemSpan SFEM II (1×)+StemSpan CC100 (1×)+Dexamethasone […]+hEPO 2IU/mL at 37° C. under normoxic conditions (20% O2 concentration). The cells were edited following five days of in vitro culture. […] On day 8, the cells were transferred to Phase 1 media, and differentiation to erythrocytes was performed through day 18 as described above. Efficiency of HDR at the HBB gene locus was evaluated on day 12 using the NGS assay described in Example 4. Also evaluated was the frequency of INDELs at the R02 cut-site as measured by NGS.
Hemoglobin expression was measured by HPLC analysis for edited PBMCs as described above.

[5] = test system: HBB locus; assay: Indel formation in mouse bone marrow 16 weeks post engraftment, TIDE; format: in vivo, mice
Method: (§2) NHEJ editing of the HBB locus was also evaluated in mouse bone marrow collected at 16 weeks post engraftment. Indel formation at the site of Cas9/gRNA cutting was evaluated by TIDE analysis in bone marrow samples and compared to indel formation of LT-HSPCs prior to administration.
as §2, with “administration. Regardless of the method used to edit the LT-HSPCs, indel formation was similar at 16 weeks post-engraftment to the level present prior to administration (FIG. 27).” for “administration.”

[6] = test system: HBB gene in PBMCs from a human donor with sickle cell disease; assay: HDR correction and INDELs in patient-derived PBMCs, NGS; format: cell-based
Method: as §1

[7] = test system: HBB gene in CD34-expressing LT-HSPCs derived from human patients with sickle cell disease; assay: Correction of sickle mutation (E6V to E6) by HDR in SCD patient-derived LT-HSPCs, NGS; format: cell-based; set-up: dose or concentration left out as unconfirmed; conditions: R02 RNP+AAV.323 + i53 mRNA; FIG. 30A, 32B
Description: The AAV-encoded homology donor used for correction is referred to as “AAV.323” and is identified by sequence in Table 8.

[8] = test system: HBB gene in CD34-expressing LT-HSPCs derived from human patients with sickle cell disease; assay: INDELs at R02 cut site in SCD patient-derived LT-HSPCs, NGS; format: cell-based; conditions: FIG. 30B
Method: Editing of cells was performed following two days of in vitro culture. Briefly, 5×10^5 cells were electroporated with RNP containing 20 g SpCas9 and 20 μg R02 sgRNA, AAV.323 at a dose of 10,000 MOI, and 1 g mRNA encoding i53. The cells were incubated with AAV.323 for 1 hour prior to electroporation. The cells were edited by electroporation with R02+AAV.323+i53 mRNA and compared to control cells edited with R02 only, R02+AAV.323, or cells exposed to electroporation without RNP or AAV editing components (mock EP).
The efficiency of gene correction by HDR repair at the HBB gene locus was evaluated by NGS assay as described in Example 3. Frequency of INDELs at the R02 cut site was evaluated by NGS analysis. […] Additionally, HDR repair and INDEL formation were compared at day 0 and day 14 post-editing.

[9] = Nu7441, either ssODN donor (SEQ ID NO: 41 or 42), FIG. 5

| Compound | HDR repair (+3 base pair insertion) ([1]; 5 μM Nu7441, ssODN SEQ ID NO: 42, FIGS. 4A-4B) | indel formation (+1, 0, or −1 base pair) ([1]; 5 μM Nu7441, ssODN SEQ ID NO: 42, vs DMSO negative control, FIGS. 4A-4B) | HDR repair [1, 9] | indel formation due to NHEJ repair [1, 9] | frequency of INDELs relative to control cells [2] | decrease in HbS levels relative to mock EP control cells [3] | expression of HbA [4] | expression of HbS [4] | level of indel formation in bone marrow ([5]; AAV.304, FIG. 27) | level of indel formation in bone marrow ([5]; AAV.307, FIG. 20) | frequency of INDELs ([6]; compared to control cells, FIG. 33B) | frequency of correction of the HBB gene by HDR repair ([6]; day 12, FIG. 33A) | incorporation of the E6V→E6 gene correction by HDR [7] | frequency of INDELs at the R02 cut site, fold lower than RNP+AAV.323 alone [8] |
| --- | --- | --- | --- | --- | --- | --- | --- | --- | --- | --- | --- | --- | --- | --- |
| O=c1cc(N2CCOCC2)oc2c(-c3cccc4c3sc3ccccc34)cccc12 [Nu7441] | much higher levels of HDR repair | dramatically reduced | increase in HDR repair | decreased levels of indel formation | – | – | – | – | – | – | – | – | – | – |
| i53: polypeptide inhibitor of 53BP1 (SEQ ID NO: 70), delivered as mRNA (ORF SEQ ID NO: 69) | – | – | – | – | reduced frequency of INDELs | 90% | increased expression of HbA | significant reduction in expression of HbS | lowest | lowest | reduced | approximately 60% | 66% | 1.9 fold |
